# “Also recorded” adds a separate entry of the source.
# Tests used:
# [1] = cited from earlier work
# [2] = Toxicity in nude mice (viability, body weight); assay type: in vivo
# Procedure: In light of the relatively rapid rate of clearance of the drug in vivo, 440 mg Sb/kg dosage was used to ensure the detection of the effectiveness of the drug for this initial study.
# As discussed above, the dosage of sodium stibogluconate used for the treatment of nude mice was 12 mg Sb/mouse, s.c., daily (or approximately 440 mg/kg body weight). […] As an initial step to assess the toxicity of such a high dosage of sodium stibogluconate in nude mice, the effect of sodium stibogluconate on the viability and body weights of WM9 xenografts nude mice during the 25 day period of the study was determined.
# PTP1B = target: T1, PTP1B (Homo sapiens, UniProt P18031); test: In vitro PTPase assay, GST/PTP1B; assay type: biochemical; conditions: 0.1 to 1 μg/ml
# T1 construct: purchased Upstate Biotechnology Inc. (Lake Placid, N.Y.)
# Procedure: In vitro PTPase activities were measured using the commercial protein tyrosine phosphatase assay kit (Upstate Biotechnology, Inc. (“UBI”)) following established procedure known to one of skill in the art. This assay measures the in vitro dephosphorylation of a synthetic phosphotyrosine peptide of the sequence Arg-Arg-Leu-Ile-Glu-Asp-Ala-Gle-T- -yr-Ala-Ala-Arg-Gly, wherein the tyrosine is phosphorylated (SEQ ID NO: 3). Briefly, 0.01 µg of GST/PTPase fusion proteins was incubated in 50 µl of Tris buffer (10 mM Tris, pH 7.4) containing different concentrations of inhibitors or chemicals (0-1,000 µg/ml) at 22° C. for 10 minutes, followed by addition of 0.2 mM of the phosphotyrosine peptide and incubation at 22° C. for 18 hours. 100 µl of Malachite Green solution was added and incubated for 5 minutes, and the absorbance at 660 nm was measured after 5 minutes.
# In vitro PTPase assays were used to determine the effects of levamisole (Sigma), pentamidine (American Pharmaceutical Partners, Inc.), and ketoconazole (Sigma) on recombinant PTPases, following established procedures (Pathak et al., J. Imumol. 167, 3391 (2001); Pathak et al., Leukemia 16, 2285 (2002), Yi et al., J. Immunol. 169, 5978 (2002)) using a synthetic phosphotyrosine peptide or DiFMUP as the substrate as detailed above in section I.A.2.
# DR cells = test: DR lymphoma cell growth, MTT assay; assay type: cell-based, human; conditions: day 6; single agent at 50 μg/ml and 100 μg/ml
# Procedure: (§1) For cell proliferation assays, cells were grown in 10% FCS culture medium containing various amounts of IFNs and/or sodium stibogluconate in 96 well plates and cultured at 37° C. for 3 or 6 days as indicated. The numbers of viable cells in proliferation assays were determined by MTT assays as described in Phatak et al., J. Immunol. 167, 3391 (2001).
# MDA231 cells = test: MDA231 breast cancer cell growth, MTT assay; assay type: cell-based, human; conditions: single agent, 50 μg/ml and 100 μg/ml
# Procedure: as §1
# DU145R cells = test: DU145R cell growth, MTT assay; assay type: cell-based, human; conditions: day 6 culture
# Procedure: DU145 cells were cultured in the presence of sodium stibogluconate (100 µg/ml) in 48 well plates for 3 weeks. Cells from a well containing a single colony were transferred to flasks, cultured in sodium stibogluconate-free medium for 3 weeks and used as DU145R cells for further characterization. Growth of DU145R cells in the absence or presence of sodium stibogluconate in day 6 culture was determined by MTT assays. cDNAs of the coding region of PRLs were derived by RT-PCR from DU145 and DU145R cells and sequenced using primers described below.
# WiT49-N1 cells = test: WiT49-N1 Wilms tumor cell growth, MTT assay; assay type: cell-based, human; conditions: day 6 culture; killing at 100 μg/ml
# Procedure: as §1
# [3] = tested on: tumor-infiltrating and spleen macrophages (F4/80+), T and NK cells; test: Immunohistochemistry of Renca tumors and spleen, Balb/c mice; conditions: mouse, in vivo
# Procedure: Major internal organs and Renca tumors harvested from mice were fixed in 10% formalin or snap frozen in liquid nitrogen. H & E-stained tissue sections of the fixed samples were prepared and evaluated by microscopy as described previously (Yi, T., M. K. Pathak, D. J. Lindner, M. E. Ketterer, C. Farver, and E. C. Borden. 2002. Anticancer activity of sodium stibogluconate in synergy with IFNs. J Immunol 169:5978). Preparation of frozen tissue sections and immunohistochemistry were performed following established procedures (Joliat, M. J., P. A. Lang, B. L. Lyons, L. Burzenski, M. A. Lynes, T. Yi, J. P. Sundberg, and L. D.
# The sections were counterstained with Mayer's hematoxylin prior to microscopic examination. Tissue sections of 2 mice/group were evaluated. The number of immune cells was semi-quantified based on the following scheme: +, 0-1 positive cells/40×field; +, 2-5 positive cells/40×field; ++, 6-10 positive cells/40×field, etc.
# Renca tumors = Renca tumors in Balb/c mice; assay type: in vivo; conditions: end of treatment
# Procedure: Balb/c and athymic nude Balb/c mice (10 weeks old, female, Taconic Farms, Germantown, N.Y.) were inoculated (s.c.) at the flanks with Renca cells (10^6 cells/site). […] Student's t test was used for assessing the significance of tumor volume differences among differential treatment groups. Mouse viability (daily) and body weights (weekly) were also recorded during the study period. At the end of the study, Renca tumors and major internal organs (heart, kidney, liver, lung and spleen) were harvested for histology and immunohistochemistry analysis.
# intracellular Flag-PRL-2 = target: T2, intracellular Flag-PRL-2 (Homo sapiens, UniProt Q12974); test: Immunocomplex PTPase assay, Flag-PRL-2 NIH3T3 transfectants; assay type: cell-based
# T2 construct: expressed in transfected cells; host or cells: NIH3T3 (pBabepuro, puromycin-selected)
# Procedure: Immunocomplex PTPase assays were performed to assess the effects of sodium stibogluconate on intracellular PTPases. Cells were untreated or treated with sodium stibogluconate for 5 minutes, washed with fresh medium and then lysed in cold lysis buffer (50 mM Tris, pH 7.4; 150 mM NaCl; 1% NP40; 2 mM PMSF; 20 μg/ml of Aprotinin). The lysates were incubated with an anti-Flag antibody in immunoprecipitation assays. The immunocomplexes were collected with protein G sepharose beads (Pharmacia) and washed in cold lysis buffer for 4 times. […] C. for 18 hrs. 100 µL of malachite green solution (UBI) was added to each reaction prior to measurement of OD660 to quantify the amounts of free phosphate cleaved by the PTPases from the peptide substrate (Pathak et al., J. Imumol. 167, 3391 (2001)). The remaining 10% contents of individual samples were analyzed by SDS-PAGE/Western blotting to quantify the relative amounts of the phosphatase proteins. […]
# The effects of sodium stibogluconate on intracellular PTPases were assessed using NIH3T3 or WM9 transfectants. […]
# T2 sequence (Q12974 whole entry): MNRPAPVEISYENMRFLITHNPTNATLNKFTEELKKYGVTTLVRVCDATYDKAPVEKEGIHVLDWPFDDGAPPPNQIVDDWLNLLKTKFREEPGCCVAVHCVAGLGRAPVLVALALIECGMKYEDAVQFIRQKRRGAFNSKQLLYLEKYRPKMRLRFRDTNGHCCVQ
# T1 sequence (P18031 whole entry, species assumed): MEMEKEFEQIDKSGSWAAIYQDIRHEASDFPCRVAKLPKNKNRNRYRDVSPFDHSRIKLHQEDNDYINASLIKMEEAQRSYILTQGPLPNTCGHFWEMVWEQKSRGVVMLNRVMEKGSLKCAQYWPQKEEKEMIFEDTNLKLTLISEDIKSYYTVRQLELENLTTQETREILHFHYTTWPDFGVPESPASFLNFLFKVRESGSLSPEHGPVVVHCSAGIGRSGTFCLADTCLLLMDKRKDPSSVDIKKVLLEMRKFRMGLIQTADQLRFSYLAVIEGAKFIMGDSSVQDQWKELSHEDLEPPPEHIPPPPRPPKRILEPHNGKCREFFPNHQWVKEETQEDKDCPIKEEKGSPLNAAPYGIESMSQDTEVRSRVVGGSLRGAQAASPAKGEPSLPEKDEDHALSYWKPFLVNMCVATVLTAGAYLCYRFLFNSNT
structure (smiles),measurement,setting,value
O.O.O.O.O.O.O.O.O.O=C([O-])[C@@H]1[O][Sb]2([O-])([O][Sb]34([OH])[O][C@H]([C@H](O)CO)[C@H]([O]3)[C@H](C(=O)[O-])[O]4)[O][C@H]([C@H](O)CO)[C@@H]1[O]2.[Na+].[Na+].[Na+] [sodium stibogluconate],clinical tolerability at therapeutic dosages,"[1]; human, in vivo",well tolerated
same,serum levels,[1]; standard dosage 10-20 mg/kg/day,≥ 10000 ng/mL
same,tolerability,[2]; 12 mg Sb daily (440 mg Sb/kg daily),well tolerated with no serious side effects
same,"tolerated daily dose in mice, pilot study",[2]; approximately 700-800 mg Sb/kg,20 mg Sb
same,survival of WM9-inoculated nude mice,[2]; day 25,survived until the end of the study
same,inhibition of PTP1B activity,PTP1B,only modestly effective
same,growth inhibition of DR cells,DR cells,complete or near complete killing
same,MDA231 cells in day 6 culture,MDA231 cells,killed all cells; also recorded: complete or near complete killing
same,growth of DU145R clone in comparison to parental DU145,DU145R cells,growth resistance
same,sensitivity of WiT49-N1 cells,WiT49-N1 cells,sensitive; also recorded: complete or near complete killing
same,numbers of tumor-infiltrating T cells or NK cells,[3],little effect
same,tolerability of treatment,Renca tumors,tolerated well
same,time required for full removal of effect on intracellular PRL-2 activity,intracellular Flag-PRL-2,at least 24 hours
same,PTPase activity of immunocomplexes from treated Flag-PRL-2 transfectants,intracellular Flag-PRL-2; cells treated 5 min,lack of PTPase activity

# From patent US20080089860A1, “Therapeutic compositions and methods useful in treating cancer” (priority 2006, published 2008)
